Reference: patent US11685746B2, “Heteroaryl compounds for treating Huntington's disease” (PTC THERAPEUTICS, INC., priority 2018, dated 2023)

These compounds were tested on Endogenous Huntingtin Protein (assay: Endogenous Huntingtin Protein Assay (MSD plates, MW1 or MAB2166 capture antibody)). Conditions: Table 1.
Type: cell-based
Summary of the method: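 Endogenous huntingtin was captured overnight at 4° C on wells coated with 1 μg/mL MW1 (polyglutamine-specific) or MAB2166. Detection used rabbit #5656S and then goat anti-rabbit SULFO-TAG, both at 0.25 μg/mL and 1 h at room temperature. Plates were imaged on the MSD system in read buffer T.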
`Cc1cn2cc(-c3nc4sc(C5CCNCC5)nc4s3)cc(C#N)c2n1` [Compound 10, 2-methyl-6-[5-(piperidin-4-yl)[1,3]thiazolo[5,4-d][1,3]thiazol-2-yl]imidazo[1,2-a]pyridine-8-carbonitrile] gave an IC50 of 100 to 500 nM.
For `Oc1cc(-c2cn[nH]c2)ccc1-c1nc2sc(NC3CC4CCC(C3)N4)nc2s1` (stereo not drawn) [Compound 13, 2-{5-[(3-exo)-8-azabicyclo[3.2.1]oct-3-ylamino][1,3]thiazolo[5,4-d][1,3]thiazol-2-yl}-5-(1H-pyrazol-4-yl)phenol], the IC50 was ≤ 100 nM.
`CN(c1nc2sc(-c3ncc(-c4cn[nH]c4)c4cc[nH]c34)nc2s1)[C@H]1C[C@]2(C)CC[C@](C)(C1)N2` [Compound 154, N-[(1R,3s,5S)-1,5-dimethyl-8-azabicyclo[3.2.1]octan-3-yl]-N-methyl-5-[4-(1H-pyrazol-4-yl)-1H-pyrrolo[2,3-c]pyridin-7-yl][1,3]thiazolo[5,4-d][1,3]thiazol-2-amine] was tested, and the IC50 was ≤ 100 nM.
With `CN(c1nc2sc(-c3cnc(-n4ccnc4)cn3)nc2s1)[C@H]1C[C@]2(C)CC[C@](C)(C1)N2` [Compound 103, N-[(1R,3s,5S)-1,5-dimethyl-8-azabicyclo[3.2.1]octan-3-yl]-5-[5-(1H-imidazol-1-yl)pyrazin-2-yl]-N-methyl[1,3]thiazolo[5,4-d][1,3]thiazol-2-amine] the IC50 was ≤ 100 nM.
For `CN(c1nc2sc(-c3cnc(-c4cn[nH]c4)nc3)nc2s1)C1CC(C)(C)NC(C)(C)C1` [Compound 137, N-methyl-5-[2-(1H-pyrazol-4-yl)pyrimidin-5-yl]-N-(2,2,6,6-tetramethylpiperidin-4-yl)[1,3]thiazolo[5,4-d][1,3]thiazol-2-amine], the IC50 was ≤ 100 nM.
`CN(c1nc2sc(-c3cc(F)c(-c4cn[nH]c4)c(F)c3)nc2s1)C1CC(C)(C)NC(C)(C)C1` [Compound 5, 5-[3,5-difluoro-4-(1H-pyrazol-4-yl)phenyl]-N-methyl-N-(2,2,6,6-tetramethylpiperidin-4-yl)[1,3]thiazolo[5,4-d][1,3]thiazol-2-amine] was tested, and the IC50 was ≤ 100 nM.
With `C[C@H]1C[C@@H](N(C)c2nc3sc(-c4ncc(-c5cn[nH]c5)c5cc[nH]c45)nc3s2)CCN1` [Compound 98, N-methyl-N-[(2S,4S)-2-methylpiperidin-4-yl]-5-[4-(1H-pyrazol-4-yl)-1H-pyrrolo[2,3-c]pyridin-7-yl][1,3]thiazolo[5,4-d][1,3]thiazol-2-amine] the IC50 was ≤ 100 nM.
In the case of `CN(c1nc2sc(-c3ncc(-c4cn[nH]c4)nn3)nc2s1)[C@H]1C[C@]2(C)CC[C@](C)(C1)N2` [Compound 79, N-[(1R,3s,5S)-1,5-dimethyl-8-azabicyclo[3.2.1]octan-3-yl]-N-methyl-5-[6-(1H-pyrazol-4-yl)-1,2,4-triazin-3-yl][1,3]thiazolo[5,4-d][1,3]thiazol-2-amine], the IC50 is reported as ≤ 100 nM.
Work on `Cc1cn2cc(-c3nc4sc(C5CCNCC5)nc4s3)nc2c(C)n1` [Compound 44, 6,8-dimethyl-2-[5-(piperidin-4-yl)[1,3]thiazolo[5,4-d][1,3]thiazol-2-yl]imidazo[1,2-a]pyrazine] yielded an IC50 of 1000 to 3000 nM.
In the case of `Cc1cn(-c2cnc(-c3nc4sc(N(C)C5CCNCC5)nc4s3)c(O)c2)cn1` [Compound 221, 5-(4-methyl-1H-imidazol-1-yl)-2-{5-[methyl(piperidin-4-yl)amino][1,3]thiazolo[5,4-d][1,3]thiazol-2-yl}pyridin-3-ol], the IC50 is reported as ≤ 100 nM.
In the case of `CN(c1nc2sc(-c3ccc(-c4cn[nH]c4)nc3)nc2s1)[C@@H]1C[C@H]2CC[C@@H](C1)N2` [Compound 173, N-[(1R,3s,5S)-8-azabicyclo[3.2.1]octan-3-yl]-N-methyl-5-[6-(1H-pyrazol-4-yl)pyridin-3-yl][1,3]thiazolo[5,4-d][1,3]thiazol-2-amine], the IC50 is reported as ≤ 100 nM.
